Measurements published in patent US20210120813A1, “INHIBITORS OF THE SHIKIMATE PATHWAY” (PEPTICOM LTD., priority 2018, published 2021).
“And” between values parts separate entries of the source, which are not always exact repeats. Equal values may be shown once. “Also recorded” adds a separate entry of the source. Read-outs that look alike come from different tables or passages of the source.

Tests used:
[1] = system: EPSPS (wild type) from common wheat; format: cell-based, Triticum Aestivum; conditions: for ability of rescued AB2829 bacteria cells (wild type EPSPS) to grow on M9 minimal media: 40 h, 0.1% rhamnose
[2] = system: EPSPS (TIPS mutant) from common wheat; format: cell-based, Triticum Aestivum
[3] = system: EPSPS (TIPS mutant) from common wheat; format: cell-based, Triticum Aestivum; remark: listed apart in the source
WT EPSPS = WT EPSPS (Triticum aestivum, UniProt B5M6A1); assay: In-vitro kinetics of EPSPS enzymatic activity (Malachite green phosphate release), WT; format: biochemical; conditions: apparent Km increases, Vmax unaffected; glyphosate vs PEP, compound 4 vs S3P
TIPS EPSPS = TIPS EPSPS (Triticum aestivum, UniProt B5M6A1, P172S/T168I); format: biochemical; conditions: for effect of the TIPS mutation on inhibition of EPSPS activity (IC50 WT vs TIPS): WT vs TIPS EPSPS enzyme
[4] = system: Chenopodium album (CHEAL); assay: Weed efficacy on petri dishes, germination and visual notation, CHEAL; format: in vivo; conditions: for CHEAL Visual notation Mean: scale 0 = as control to 100
[5] = system: Lolium multiflorum (LOLMU); assay: Weed efficacy on petri dishes, germination and visual notation, LOLMU; format: in vivo; conditions: for LOLMU Visual notation Mean: scale 0 = as control to 100

Chain of TIPS EPSPS (B5M6A1 66-510 P172S/T168I limits assumed): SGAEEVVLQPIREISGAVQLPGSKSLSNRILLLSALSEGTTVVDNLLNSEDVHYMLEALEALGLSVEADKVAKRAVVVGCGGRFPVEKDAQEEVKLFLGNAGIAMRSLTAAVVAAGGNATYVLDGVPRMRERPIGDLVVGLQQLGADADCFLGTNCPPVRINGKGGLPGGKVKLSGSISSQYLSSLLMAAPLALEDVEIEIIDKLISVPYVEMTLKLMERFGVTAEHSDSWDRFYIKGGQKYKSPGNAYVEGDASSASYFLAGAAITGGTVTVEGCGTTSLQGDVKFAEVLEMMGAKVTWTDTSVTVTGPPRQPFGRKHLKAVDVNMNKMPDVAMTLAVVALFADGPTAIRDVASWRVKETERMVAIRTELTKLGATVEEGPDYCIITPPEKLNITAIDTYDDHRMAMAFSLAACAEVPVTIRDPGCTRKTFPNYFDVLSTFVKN
Chain of WT EPSPS (B5M6A1 66-510 limits assumed): as the sequence (B5M6A1 66-510 P172S/T168I limits assumed) above, with I103T, S107P counted along it

Compound: COc1c(C(=O)O)ccc([N+](=O)[O-])c1O [Compound 1, 3-Hydroxy-2-methoxy-4-nitrobenzoic acid]
- % bacterial growth relative to rescue with wild type EPSPS at 5 mM, 40 h post application [1]: −15%
- ability of rescued AB2829 bacteria cells (wild type EPSPS) to grow on M9 minimal media ([1]; 5 mM): completely abolish
- % bacterial growth relative to rescue with mutant EPSPS at 20 mM, 40 h post application [2]: −79%
- ability of rescued AB2829 bacteria cells (EPSPS TIPS) to grow on M9 minimal media ([2]; 20 mM, 40 h, 0.1% rhamnose): completely abolish

Compound: COc1ccc(C(=O)O)cc1O [Compound 2, 3-Hydroxy-4-methoxybenzoic acid]
- % bacterial growth relative to rescue with wild type EPSPS at 5 mM, 40 h post application [1]: 27%
- ability of rescued AB2829 bacteria cells (wild type EPSPS) to grow on M9 minimal media ([1]; 5 mM): completely abolish
- % bacterial growth relative to rescue with mutant EPSPS at 20 mM, 40 h post application [2]: −25%
- ability of rescued AB2829 bacteria cells (EPSPS TIPS) to grow on M9 minimal media ([2]; 20 mM, 40 h, 0.1% rhamnose): completely abolish

Compound: O=C(O)c1cccc(O)c1O [Compound 3, 2,3-Dihydroxybenzoic acid]
- % bacterial growth relative to rescue with wild type EPSPS at 5 mM, 40 h post application [1]: 54%
- ability of rescued AB2829 bacteria cells (wild type EPSPS) to grow on M9 minimal media ([1]; 5 mM): completely abolish
- % bacterial growth relative to rescue with mutant EPSPS at 20 mM, 40 h post application [2]: −105%
- ability of rescued AB2829 bacteria cells (EPSPS TIPS) to grow on M9 minimal media ([2]; 20 mM, 40 h, 0.1% rhamnose): completely abolish
- growth with gradually increasing rhamnose (EPSPS TIPS titration) ([3]; 2.5 mM, rhamnose 0%-0.4%, 60 h): facilitates growth in a gradual manner

Compound: Nc1cc(O)c([N+](=O)[O-])cc1C(=O)O [Compound 4, 2-Amino-4-hydroxy-5-nitrobenzoic acid]
- mode of EPSPS inhibition (Michaelis-Menten and Lineweaver-Burk plots) (WT EPSPS): competitive inhibitor
- % bacterial growth relative to rescue with wild type EPSPS at 5 mM, 40 h post application [1]: −87%
- ability of rescued AB2829 bacteria cells (wild type EPSPS) to grow on M9 minimal media ([1]; 5 mM): completely abolish
- % bacterial growth relative to rescue with mutant EPSPS at 20 mM, 40 h post application [2]: −94%
- ability of rescued AB2829 bacteria cells (EPSPS TIPS) to grow on M9 minimal media ([2]; 20 mM, 40 h, 0.1% rhamnose): completely abolish
- inhibition of the TIPS mutant relative to glyphosate (TIPS EPSPS; IC50 comparison, TIPS EPSPS enzyme): one order of magnitude better
- effect of the TIPS mutation on inhibition of EPSPS activity (IC50 WT vs TIPS) (TIPS EPSPS): hardly affected
- growth with gradually increasing rhamnose (EPSPS TIPS titration) ([3]; 1.0 mM, rhamnose 0%-0.4%, 60 h): facilitates growth in a gradual manner

Compound: O=C(O)c1cccc(C(=O)O)c1O [Compound 5, 2-Hydroxy-1,3-benzenedicarboxylic acid]
- % bacterial growth relative to rescue with mutant EPSPS at 20 mM, 40 h post application [2]: −220%
- ability of rescued AB2829 bacteria cells (EPSPS TIPS) to grow on M9 minimal media ([2]; 20 mM, 40 h, 0.1% rhamnose): completely abolish

Compound: O=C(O)c1cc([N+](=O)[O-])cc([N+](=O)[O-])c1O [Compound 6, 2-Hydroxy-3,5-dinitrobenzoic acid]
- % bacterial growth relative to rescue with mutant EPSPS at 20 mM, 40 h post application [2]: −285%
- ability of rescued AB2829 bacteria cells (EPSPS TIPS) to grow on M9 minimal media [2]: completely abolish

Compound: Nc1ccc([N+](=O)[O-])cc1C(=O)O [Compound 7, 2-Amino-5-nitrobenzoic acid]
- % bacterial growth relative to rescue with mutant EPSPS at 20 mM, 40 h post application [2]: −260%
- ability of rescued AB2829 bacteria cells (EPSPS TIPS) to grow on M9 minimal media ([2]; 20 mM, 40 h, 0.1% rhamnose): completely abolish

Compound: CNc1ccc([N+](=O)[O-])cc1C(=O)O [Compound 8, -(Methylamino)-5-nitrobenzoic acid]
- CHEAL Germination (%) Mean ([4]; 50 mg a.i./L, 10 DAT): 90.0%
- CHEAL Visual notation Mean ([4]; 50 mg a.i./L, 10 DAT): 21.8
- CHEAL Germination (%) Mean ([4]; 500 mg a.i./L, 10 DAT): 55.0%
- CHEAL Visual notation Mean ([4]; 500 mg a.i./L, 10 DAT): 83.8
- CHEAL Germination (%) Mean ([4]; 5000 mg a.i./L, 10 DAT): 34.5%
- CHEAL Visual notation Mean ([4]; 5000 mg a.i./L, 10 DAT): 95.0
- % bacterial growth relative to rescue with mutant EPSPS at 20 mM, 40 h post application [2]: −272%
- ability of rescued AB2829 bacteria cells (EPSPS TIPS) to grow on M9 minimal media ([2]; 20 mM, 40 h, 0.1% rhamnose): completely abolish
- LOLMU Germination (%) Mean ([5]; 50 mg a.i./L, 10 DAT): 93.2%
- LOLMU Visual notation Mean ([5]; 50 mg a.i./L, 10 DAT): 3.5
- LOLMU Germination (%) Mean ([5]; 500 mg a.i./L, 10 DAT): 91.1%
- LOLMU Visual notation Mean ([5]; 500 mg a.i./L, 10 DAT): 6.6
- LOLMU Germination (%) Mean ([5]; 5000 mg a.i./L, 10 DAT): 30.4%
- LOLMU Visual notation Mean ([5]; 5000 mg a.i./L, 10 DAT): 64.8

Compound: O=C(O)c1ccc(O)c([N+](=O)[O-])c1 [Compound 10, 4-Hydroxy-3-nitrobenzoic acid]
- % bacterial growth relative to rescue with wild type EPSPS at 5 mM, 40 h post application [1]: −61%
- ability of rescued AB2829 bacteria cells (wild type EPSPS) to grow on M9 minimal media ([1]; 5 mM): completely abolish
- CHEAL Germination (%) Mean ([4]; 50 mg a.i./L, 10 DAT): 68.8%
- CHEAL Visual notation Mean ([4]; 50 mg a.i./L, 10 DAT): 52.4
- CHEAL Germination (%) Mean ([4]; 500 mg a.i./L, 10 DAT): 81.7%
- CHEAL Visual notation Mean ([4]; 500 mg a.i./L, 10 DAT): 54.4
- CHEAL Germination (%) Mean ([4]; 5000 mg a.i./L, 10 DAT): 56.7%
- CHEAL Visual notation Mean ([4]; 5000 mg a.i./L, 10 DAT): 76.5
- % bacterial growth relative to rescue with mutant EPSPS at 20 mM, 40 h post application [2]: −21%
- ability of rescued AB2829 bacteria cells (EPSPS TIPS) to grow on M9 minimal media ([2]; 20 mM, 40 h, 0.1% rhamnose): completely abolish
- LOLMU Germination (%) Mean ([5]; 50 mg a.i./L, 10 DAT): 95.6%
- LOLMU Visual notation Mean ([5]; 50 mg a.i./L, 10 DAT): 18.4
- LOLMU Germination (%) Mean ([5]; 500 mg a.i./L, 10 DAT): 95.6%
- LOLMU Visual notation Mean ([5]; 500 mg a.i./L, 10 DAT): 31.8
- LOLMU Germination (%) Mean ([5]; 5000 mg a.i./L, 10 DAT): 95.6%
- LOLMU Visual notation Mean ([5]; 5000 mg a.i./L, 10 DAT): 54.0
- growth with gradually increasing rhamnose (EPSPS TIPS titration) ([3]; 0.4 mM, rhamnose 0%-0.4%, 60 h): facilitates growth in a gradual manner

Compound: O=C(O)c1cc([N+](=O)[O-])cc([N+](=O)[O-])c1 [Compound 11, 3,5-Dinitrobenzoic acid]
- ability of rescued AB2829 bacteria cells (wild type EPSPS) to grow on M9 minimal media ([1]; 5 mM): completely abolish
- % bacterial growth relative to rescue with wild type EPSPS at 5 mM, 40 h post application ([1]; 5 mM, 40 h post application, OD600, EPSPS null = 0%, Rescue = 100%): −38%
- CHEAL Germination (%) Mean ([4]; in vivo): 73.3% and 66.1% and 37.6%
- % bacterial growth relative to rescue with mutant EPSPS at 20 mM, 40 h post application [2]: −27%
- ability of rescued AB2829 bacteria cells (EPSPS TIPS) to grow on M9 minimal media [2]: completely abolish
- LOLMU Germination (%) Mean ([5]; in vivo): 82.2% and 95.6%
- growth with gradually increasing rhamnose (EPSPS TIPS titration) [3]: facilitates growth in a gradual manner

Compound: COC(=O)c1cc([N+](=O)[O-])cc([N+](=O)[O-])c1 [Compound 12, 3,5-Dinitrobenzoic acid methyl ester]
- ability of rescued AB2829 bacteria cells (wild type EPSPS) to grow on M9 minimal media ([1]; 5 mM): completely abolish
- % bacterial growth relative to rescue with mutant EPSPS at 20 mM, 40 h post application [2]: −29%
- ability of rescued AB2829 bacteria cells (EPSPS TIPS) to grow on M9 minimal media [2]: completely abolish

Compound: O=C1NC(=O)c2c1ccc(O)c2O [Compound 13, 4,5-Dihydroxyisoindoline-1,3-dione]
- % bacterial growth relative to rescue with wild type EPSPS at 5 mM, 40 h post application [1]: −20%
- ability of rescued AB2829 bacteria cells (wild type EPSPS) to grow on M9 minimal media ([1]; 5 mM): completely abolish
- % bacterial growth relative to rescue with mutant EPSPS at 20 mM, 40 h post application [2]: −31%
- ability of rescued AB2829 bacteria cells (EPSPS TIPS) to grow on M9 minimal media ([2]; 20 mM, 40 h, 0.1% rhamnose): completely abolish
- growth with gradually increasing rhamnose (EPSPS TIPS titration) ([3]; 0.25 mM, rhamnose 0%-0.4%, 60 h): could not facilitates growth in a gradual manner
- rescue of growth phenotype by titration of EPSPS TIPS intracellular levels ([3]; single inhibitory dose, rhamnose 0.0%-0.4%): couldn't rescue the growth phenotype

Compound: O=C(O)c1cc([N+](=O)[O-])c(F)c(C(F)(F)F)c1 [Compound 14, 4-Fluoro-3-nitro-5-(trifluoromethyl)benzoic acid]
- % bacterial growth relative to rescue with mutant EPSPS at 20 mM, 40 h post application [2]: −142%
- ability of rescued AB2829 bacteria cells (EPSPS TIPS) to grow on M9 minimal media ([2]; 20 mM, 40 h, 0.1% rhamnose): completely abolish

Compound: O=C(O)c1cc([N+](=O)[O-])cc(C(F)(F)F)c1 [Compound 15, 3-Nitro-5-(trifluoromethyl) benzoic acid]
- % bacterial growth relative to rescue with wild type EPSPS at 5 mM, 40 h post application [1]: −177%
- % bacterial growth relative to rescue with mutant EPSPS at 20 mM, 40 h post application [2]: −118%
- ability of rescued AB2829 bacteria cells (EPSPS TIPS) to grow on M9 minimal media ([2]; 20 mM, 40 h, 0.1% rhamnose): completely abolish
- growth with gradually increasing rhamnose (EPSPS TIPS titration) ([3]; 0.6 mM, rhamnose 0%-0.4%, 60 h): facilitates growth in a gradual manner

Compound: O=C(O)c1cc(C(F)(F)F)cc([N+](=O)[O-])c1F [Compound 16, 2-Fluoro-3-nitro-5-(trifluoromethyl)benzoic acid]
- % bacterial growth relative to rescue with mutant EPSPS at 20 mM, 40 h post application [2]: −56%
- ability of rescued AB2829 bacteria cells (EPSPS TIPS) to grow on M9 minimal media ([2]; 20 mM, 40 h, 0.1% rhamnose): completely abolish

Compound: O=C(O)CNCP(=O)(O)O [Glyphosate, N-(phosphonomethyl)glycine, reference compound]
- mode of EPSPS inhibition (Michaelis-Menten and Lineweaver-Burk plots) (WT EPSPS): competitive inhibitor
- % bacterial growth relative to rescue with wild type EPSPS, 40 h post application [1]: +6.0% (0.7 mM) −46% (1.5 mM)
- ability of rescued AB2829 bacteria cells (wild type EPSPS) to grow on M9 minimal media ([1]; 0.7 mM): could not facilitates growth
- ability of rescued AB2829 bacteria cells (wild type EPSPS) to grow on M9 minimal media ([1]; 1.5 mM): could not facilitates growth
- % bacterial growth relative to rescue with mutant EPSPS at 20 mM, 40 h post application [2]: +127% (+/−37%)
- ability of rescued AB2829 bacteria cells (EPSPS TIPS) to grow on M9 minimal media ([2]; 20 mM, 40 h, 0.1% rhamnose): TIPS mutant is indifferent to glyphosate; also recorded: facilitates growth
- effect of the TIPS mutation on inhibition of EPSPS activity (IC50 WT vs TIPS) (TIPS EPSPS): 3 orders of magnitude stronger
- growth with gradually increasing rhamnose (EPSPS TIPS titration) [3]: facilitates growth in a gradual manner
